According to ChEMBL document CHEMBL4837257, “Discovery of the Oxadiazine FRM-024: A Potent CNS-Penetrant Gamma Secretase Modulator” (J Med Chem, 2021):

Tests used:
[1] = Bioavailability in nonhuman primate at 1 mg/kg, iv; format: ADME, organism-based; conditions: primates, in vivo
[2] = biological target: Cytochrome P450 2C9 (Homo sapiens, UniProt P11712); assay: Inhibition of CYP2C9 (unknown origin); format: ADME
[3] = Toxicity in rat assessed as effect on arterial pressures by telemetry; conditions: in vivo
[4] = organism: Homo sapiens; assay: Inhibition of adenosine transporter (unknown origin) at 10 uM relative to control

Chain of Cytochrome P450 2C9 (P11712 whole entry): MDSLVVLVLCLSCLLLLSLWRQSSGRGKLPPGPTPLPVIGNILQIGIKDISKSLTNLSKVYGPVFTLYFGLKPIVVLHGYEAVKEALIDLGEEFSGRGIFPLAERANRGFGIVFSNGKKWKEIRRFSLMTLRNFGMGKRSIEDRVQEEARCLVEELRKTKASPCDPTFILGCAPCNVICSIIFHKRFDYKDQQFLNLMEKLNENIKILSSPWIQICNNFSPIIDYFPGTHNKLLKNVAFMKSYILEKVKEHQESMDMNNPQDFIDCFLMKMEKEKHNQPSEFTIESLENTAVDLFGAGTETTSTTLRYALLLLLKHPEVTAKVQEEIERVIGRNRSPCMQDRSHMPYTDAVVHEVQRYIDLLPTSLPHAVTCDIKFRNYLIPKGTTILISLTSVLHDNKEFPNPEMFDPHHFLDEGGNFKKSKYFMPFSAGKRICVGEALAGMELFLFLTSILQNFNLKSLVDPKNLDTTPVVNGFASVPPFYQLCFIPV

- bioavailability [1]: 113%
- IC50 [2]: ≥ 14 µM
- inhibition [4]: > 50%
Structure (SMILES): COc1nc(C2=NOC(C3CC3)C(c3ccc(Cl)cc3)N2)ccc1-n1cnc(C)c1 (centres undefined)
- Activity [3]: Non-Toxic
